Among the data in patent US9492471B2, “Methods of treating a disease or disorder associated with Bruton'S Tyrosine Kinase” (Celgene Avilomics Research, Inc., priority 2013, dated 2016) are inhibition and remaining activity values, retold here.

Each structure is given as a SMILES string. Like-named read-outs stand apart in the source and are kept apart here.

Holding throughout (assay): HotSpot kinase profiling
What all share (type): biochemical

Assay [1] has as its target T1, BMX/ETK (Homo sapiens, UniProt P51813).
T1 construct: purchased Reaction Biology Corp
T1 sequence (P51813 1-675): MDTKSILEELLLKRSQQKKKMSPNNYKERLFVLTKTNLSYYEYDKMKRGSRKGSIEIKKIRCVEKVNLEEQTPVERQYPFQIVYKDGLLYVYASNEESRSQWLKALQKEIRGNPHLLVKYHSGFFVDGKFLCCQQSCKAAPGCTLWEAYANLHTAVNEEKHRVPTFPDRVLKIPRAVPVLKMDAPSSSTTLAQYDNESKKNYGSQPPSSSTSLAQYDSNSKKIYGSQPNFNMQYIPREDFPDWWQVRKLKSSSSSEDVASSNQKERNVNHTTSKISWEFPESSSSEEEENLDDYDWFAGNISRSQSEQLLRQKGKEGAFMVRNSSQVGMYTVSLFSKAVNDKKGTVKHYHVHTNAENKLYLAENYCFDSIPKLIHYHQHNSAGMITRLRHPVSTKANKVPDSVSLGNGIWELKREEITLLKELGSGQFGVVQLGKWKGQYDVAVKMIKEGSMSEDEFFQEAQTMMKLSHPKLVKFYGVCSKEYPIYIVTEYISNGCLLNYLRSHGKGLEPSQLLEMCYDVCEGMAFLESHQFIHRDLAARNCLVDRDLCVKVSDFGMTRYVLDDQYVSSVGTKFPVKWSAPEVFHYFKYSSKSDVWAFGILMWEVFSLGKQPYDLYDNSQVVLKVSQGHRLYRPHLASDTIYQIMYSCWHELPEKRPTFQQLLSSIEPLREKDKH
In a few lines:
(§1)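 Percent inhibition, averaged when run more than once and referenced to a DMSO negative control, came from a radioactive filter-binding readout on P81 paper. Reactions of kinase with freshly made substrate and cofactors ran for 2 h at room temperature.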

In assay [2] the target is T2, TRKA (Homo sapiens, UniProt P04629).
T2 construct: purchased Reaction Biology Corp
The gist of the method: as §1

Assay [3] addresses T3, ASK1/MAP3K5 (Homo sapiens, UniProt Q99683).
T3 construct: purchased Reaction Biology Corp
T3 sequence (Q99683 1-1374): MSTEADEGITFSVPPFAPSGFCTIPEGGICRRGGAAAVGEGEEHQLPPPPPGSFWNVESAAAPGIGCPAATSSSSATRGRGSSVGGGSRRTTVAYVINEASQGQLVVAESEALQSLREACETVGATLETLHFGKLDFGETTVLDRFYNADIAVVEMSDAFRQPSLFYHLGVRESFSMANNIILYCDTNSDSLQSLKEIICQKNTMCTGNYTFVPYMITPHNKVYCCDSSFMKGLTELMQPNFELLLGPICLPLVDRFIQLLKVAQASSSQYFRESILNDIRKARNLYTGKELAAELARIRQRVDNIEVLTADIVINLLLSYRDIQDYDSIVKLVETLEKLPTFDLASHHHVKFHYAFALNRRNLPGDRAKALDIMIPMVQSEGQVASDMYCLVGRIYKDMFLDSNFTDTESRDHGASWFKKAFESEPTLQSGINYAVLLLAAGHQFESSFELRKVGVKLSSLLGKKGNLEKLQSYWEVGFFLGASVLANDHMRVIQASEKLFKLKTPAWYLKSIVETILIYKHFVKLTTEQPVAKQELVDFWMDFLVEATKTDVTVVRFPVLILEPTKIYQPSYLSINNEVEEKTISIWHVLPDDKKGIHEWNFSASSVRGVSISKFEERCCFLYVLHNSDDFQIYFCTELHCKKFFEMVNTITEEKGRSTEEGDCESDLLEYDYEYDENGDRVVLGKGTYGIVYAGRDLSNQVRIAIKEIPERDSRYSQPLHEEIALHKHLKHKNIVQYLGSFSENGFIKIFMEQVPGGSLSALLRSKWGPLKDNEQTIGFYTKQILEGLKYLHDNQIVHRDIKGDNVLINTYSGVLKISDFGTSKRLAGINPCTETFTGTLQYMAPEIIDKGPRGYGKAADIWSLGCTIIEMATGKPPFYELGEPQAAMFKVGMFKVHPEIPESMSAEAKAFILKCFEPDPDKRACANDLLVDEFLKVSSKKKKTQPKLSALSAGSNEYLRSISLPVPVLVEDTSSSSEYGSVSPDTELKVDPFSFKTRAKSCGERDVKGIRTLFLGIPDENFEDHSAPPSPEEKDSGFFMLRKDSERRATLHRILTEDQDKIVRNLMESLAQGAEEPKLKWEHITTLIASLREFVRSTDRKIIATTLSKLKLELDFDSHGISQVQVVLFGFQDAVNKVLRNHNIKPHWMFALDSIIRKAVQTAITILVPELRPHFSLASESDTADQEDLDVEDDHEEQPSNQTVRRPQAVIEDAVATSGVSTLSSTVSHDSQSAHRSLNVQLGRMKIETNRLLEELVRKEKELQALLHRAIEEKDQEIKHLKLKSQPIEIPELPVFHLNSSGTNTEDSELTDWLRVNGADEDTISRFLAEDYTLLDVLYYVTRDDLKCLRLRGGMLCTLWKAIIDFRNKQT
The gist of the method:
as §1

Assay [4] addresses T4, PIM3 (Homo sapiens, UniProt Q86V86).
T4 construct: purchased Reaction Biology Corp
The gist of the method: as §1

Setting [5] is: read-out: % Enzyme Activity (relative to DMSO controls) Run 1.
The mark [6] stands for this setting: read-out: % Enzyme Activity (relative to DMSO controls) Run 2.

T2 sequence (P04629 33-796): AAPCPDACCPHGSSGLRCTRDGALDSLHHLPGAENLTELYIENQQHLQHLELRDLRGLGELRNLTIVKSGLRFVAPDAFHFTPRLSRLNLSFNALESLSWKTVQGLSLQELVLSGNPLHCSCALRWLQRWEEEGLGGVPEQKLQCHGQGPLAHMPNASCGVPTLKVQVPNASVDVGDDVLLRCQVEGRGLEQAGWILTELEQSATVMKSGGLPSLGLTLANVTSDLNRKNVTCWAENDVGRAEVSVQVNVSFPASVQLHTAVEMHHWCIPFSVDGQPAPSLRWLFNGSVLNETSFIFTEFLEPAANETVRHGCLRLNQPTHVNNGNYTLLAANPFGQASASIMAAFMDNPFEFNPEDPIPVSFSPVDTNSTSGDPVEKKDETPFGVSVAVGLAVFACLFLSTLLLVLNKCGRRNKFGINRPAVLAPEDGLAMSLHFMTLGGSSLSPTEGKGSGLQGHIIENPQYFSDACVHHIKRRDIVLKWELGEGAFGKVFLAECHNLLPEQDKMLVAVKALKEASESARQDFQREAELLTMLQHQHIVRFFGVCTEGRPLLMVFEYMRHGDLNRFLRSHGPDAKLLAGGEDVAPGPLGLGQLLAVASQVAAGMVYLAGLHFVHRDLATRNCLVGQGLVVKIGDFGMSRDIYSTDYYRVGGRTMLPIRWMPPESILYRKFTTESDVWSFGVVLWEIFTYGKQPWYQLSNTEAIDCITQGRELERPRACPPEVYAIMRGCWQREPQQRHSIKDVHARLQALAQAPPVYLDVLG

For `C=CC(=O)Nc1cccc(Nc2nc(Nc3ccc(OCCOC)c(F)c3)ncc2F)c1` [Compound 2], the inhibition at 3 µM in assay [1] was 98.9%; in assay [2], -17.7%; in assay [3], -1.62%; in assay [4], -1.83%. Besides, the remaining activity at 3 µM in assay [1] (setting [5]) came to 0.93%; in assay [1] (setting [6]), 1.23%; in assay [2] (setting [5]), 117%; in assay [2] (setting [6]), 118%; in assay [3] (setting [5]), 101%; in assay [3] (setting [6]) it was 102%. The remaining activity at 3 µM in assay [4] (setting [5]) was determined as 104%; in assay [4] (setting [6]), 100%.
